Values after ≈ are worked out from the molar mass of the structure shown.
Assays:
Staphylococcus aureus [1] = test: Antimicrobial activity against Staphylococcus aureus Sau 16162 assessed as inhibition of bacterial growth incubated for 16 to 18 hrs by broth micro dilution technique; type: functional; conditions: time 16-18 hrs
Staphylococcus aureus [2] = test: Antimicrobial activity against Staphylococcus aureus Sau 6917 assessed as inhibition of bacterial growth incubated for 16 to 18 hrs by broth micro dilution technique; type: functional; conditions: time 16-18 hrs
Staphylococcus aureus [3] = test: Antimicrobial activity against Staphylococcus aureus Sau 1862 assessed as inhibition of bacterial growth incubated for 16 to 18 hrs by broth micro dilution technique; type: functional; conditions: time 16-18 hrs
Staphylococcus aureus [4] = test: Antimicrobial activity against Staphylococcus aureus Sau 991 assessed as inhibition of bacterial growth incubated for 16 to 18 hrs by broth micro dilution technique; type: functional; conditions: time 16-18 hrs
Staphylococcus aureus [5] = test: Antimicrobial activity against Staphylococcus aureus Sau 718306 assessed as inhibition of bacterial growth incubated for 16 to 18 hrs by broth micro dilution technique; type: functional; conditions: time 16-18 hrs
Staphylococcus aureus [6] = test: Antimicrobial activity against Staphylococcus aureus Sau 745524 assessed as inhibition of bacterial growth incubated for 16 to 18 hrs by broth micro dilution technique; type: functional; conditions: time 16-18 hrs
Staphylococcus aureus [7] = test: Antimicrobial activity against Staphylococcus aureus CCAM 3090 assessed as inhibition of bacterial growth incubated for 16 to 18 hrs by broth micro dilution technique; type: functional; conditions: time 16-18 hrs
Staphylococcus aureus [8] = test: Antimicrobial activity against Staphylococcus aureus ATCC 29213 assessed as inhibition of bacterial growth incubated for 16 to 18 hrs by broth micro dilution technique; type: functional; conditions: time 16-18 hrs
Micrococcus luteus = test: Antimicrobial activity against Micrococcus luteus ML01 assessed as inhibition of bacterial growth incubated for 16 to 18 hrs by broth micro dilution technique; type: functional; conditions: time 16-18 hrs
Enterococcus faecium = test: Antimicrobial activity against Enterococcus faecium ATCC 35682 assessed as inhibition of bacterial growth incubated for 16 to 18 hrs by broth micro dilution technique; type: functional; conditions: time 16-18 hrs
Enterococcus faecalis = test: Antimicrobial activity against Enterococcus faecalis ATCC 29212 assessed as inhibition of bacterial growth incubated for 16 to 18 hrs by broth micro dilution technique; type: functional; conditions: time 16-18 hrs
Bacillus thuringiensis = test: Antimicrobial activity against Bacillus thuringiensis BT01 assessed as inhibition of bacterial growth incubated for 16 to 18 hrs by broth micro dilution technique; type: functional; conditions: time 16-18 hrs
Candida albicans = test: Antimicrobial activity against Candida albicans assessed as inhibition of bacterial growth incubated for 16 to 18 hrs by broth micro dilution technique; type: functional; conditions: time 16-18 hrs
HepG2 = test: Cytotoxicity against human HepG2 cells assessed as growth inhibition incubated for 68 hrs by MTT assay; type: functional, cell-based; conditions: HepG2, 68 h
HeLa = test: Cytotoxicity against human HeLa cells assessed as growth inhibition incubated for 68 hrs by MTT assay; type: functional, cell-based
HL-60 = test: Cytotoxicity against human HL-60 cells assessed as growth inhibition incubated for 68 hrs by MTT assay; type: functional, cell-based; conditions: HL-60, 68 h
RKO = test: Cytotoxicity against human RKO cells assessed as growth inhibition incubated for 68 hrs by MTT assay; type: functional, cell-based
A549 = test: Cytotoxicity against human A549 cells assessed as growth inhibition incubated for 68 hrs by MTT assay; type: functional, cell-based; conditions: A549, 68 h
MCF7 = test: Cytotoxicity against human MCF7 cells assessed as growth inhibition incubated for 68 hrs by MTT assay; type: functional, cell-based; conditions: MCF7, 68 h
L02 = test: Cytotoxicity against human L02 cells assessed as growth inhibition incubated for 68 hrs by MTT assay; type: cell-based; conditions: L02, 68 h
BEAS-2B = test: Cytotoxicity against human BEAS-2B cells assessed as growth inhibition incubated for 68 hrs by MTT assay; type: cell-based

For `CC(C)[C@H]1C(=O)O[C@H](C)[C@H](NC(=O)c2c3nc4c(C(=O)N[C@@H]5C(=O)N[C@H](C(C)C)C(=O)N6CCC[C@H]6C(=O)N(CO)CC(=O)N(C)[C@@H](C(C)C)C(=O)O[C@@H]5C)ccc(Br)c4oc-3c(Br)c(=O)c2N)C(=O)N[C@H](C(C)C)C(=O)N2CCC[C@H]2C(=O)N(C)CC(=O)N1C`, the MIC (Staphylococcus aureus [1]) was 32 µg/mL (≈ 22.8 µM), the MIC (Staphylococcus aureus [2]) was 32 µg/mL (≈ 22.8 µM) and the MIC (Staphylococcus aureus [3]) was 32 µg/mL (≈ 22.8 µM). For the same molecule, the MIC (Staphylococcus aureus [4]) was 32 µg/mL (≈ 22.8 µM), the MIC (Staphylococcus aureus [5]) was 16 µg/mL (≈ 11.4 µM) and the MIC (Staphylococcus aureus [6]) was 32 µg/mL (≈ 22.8 µM). It also gave an MIC (Staphylococcus aureus [7]) of 32 µg/mL (≈ 22.8 µM), an MIC (Staphylococcus aureus [8]) of 32 µg/mL (≈ 22.8 µM) and an MIC (Micrococcus luteus) of 2 µg/mL (≈ 1.43 µM). For the same molecule, the MIC (Enterococcus faecium) was 4 µg/mL (≈ 2.85 µM), the MIC (Enterococcus faecalis) was 32 µg/mL (≈ 22.8 µM) and the MIC (Bacillus thuringiensis) was 4 µg/mL (≈ 2.85 µM). For the same molecule, the MIC (Candida albicans) was 8 µg/mL (≈ 5.71 µM), the IC50 (HepG2) was > 50000 nM and the IC50 (HeLa) was > 50000 nM. For the same molecule, the IC50 (HL-60) was > 50000 nM, the IC50 (RKO) was 24600 nM and the IC50 (A549) was 37800 nM. The IC50 (MCF7) was 12800 nM, the IC50 (L02) was 13300 nM and the IC50 (BEAS-2B) was 5800 nM.
In the case of `CC(C)[C@H]1C(=O)O[C@H](C)[C@H](NC(=O)c2c3nc4c(C(=O)N[C@@H]5C(=O)N[C@H](C(C)C)C(=O)N6CCC[C@H]6C(=O)N(C)CC(=O)N(C)[C@@H](C(C)C)C(=O)O[C@@H]5C)ccc(I)c4oc-3c(I)c(=O)c2N)C(=O)N[C@H](C(C)C)C(=O)N2CCC[C@H]2C(=O)N(C)CC(=O)N1C`, the MIC (Staphylococcus aureus [1]) is reported as 4 µg/mL (≈ 2.7 µM), the MIC (Staphylococcus aureus [2]) is reported as 4 µg/mL (≈ 2.7 µM) and the MIC (Staphylococcus aureus [3]) is reported as 2 µg/mL (≈ 1.35 µM). It also gave an MIC (Staphylococcus aureus [4]) of 2 µg/mL (≈ 1.35 µM), an MIC (Staphylococcus aureus [5]) of 2 µg/mL (≈ 1.35 µM) and an MIC (Staphylococcus aureus [6]) of 2 µg/mL (≈ 1.35 µM). The MIC (Staphylococcus aureus [7]) was 4 µg/mL (≈ 2.7 µM), the MIC (Staphylococcus aureus [8]) was 4 µg/mL (≈ 2.7 µM) and the MIC (Micrococcus luteus) was < 0.06 µg/mL. It also gave an MIC (Enterococcus faecium) of 0.06 µg/mL (≈ 0.0406 µM), an MIC (Enterococcus faecalis) of 2 µg/mL (≈ 1.35 µM) and an MIC (Bacillus thuringiensis) of 0.13 µg/mL (≈ 0.0879 µM). The MIC (Candida albicans) was 0.13 µg/mL (≈ 0.0879 µM), the IC50 (HepG2) was 100 nM and the IC50 (HeLa) was 200 nM. It also gave an IC50 (HL-60) of 50 nM, an IC50 (RKO) of 200 nM and an IC50 (A549) of 5000 nM. For the same molecule, the IC50 (MCF7) was 1100 nM, the IC50 (L02) was 1500 nM and the IC50 (BEAS-2B) was 500 nM.
`CC(C)[C@H]1C(=O)O[C@H](C)[C@H](NC(=O)c2c3nc4c(C(=O)N[C@@H]5C(=O)N[C@H](C(C)C)C(=O)N6CCC[C@H]6C(=O)N(C)CC(=O)N(C)[C@@H](C(C)C)C(=O)O[C@@H]5C)cccc4oc-3c(Cl)c(=O)c2N)C(=O)N[C@H](C(C)C)C(=O)N2CCC[C@H]2C(=O)N(C)CC(=O)N1C` was tested, and the MIC (Staphylococcus aureus [1]) was 32 µg/mL (≈ 25.4 µM), the MIC (Staphylococcus aureus [2]) was 16 µg/mL (≈ 12.7 µM) and the MIC (Staphylococcus aureus [3]) was 8 µg/mL (≈ 6.34 µM). The MIC (Staphylococcus aureus [4]) was 8 µg/mL (≈ 6.34 µM), the MIC (Staphylococcus aureus [5]) was 8 µg/mL (≈ 6.34 µM) and the MIC (Staphylococcus aureus [6]) was 8 µg/mL (≈ 6.34 µM). For the same molecule, the MIC (Staphylococcus aureus [7]) was 16 µg/mL (≈ 12.7 µM), the MIC (Staphylococcus aureus [8]) was 16 µg/mL (≈ 12.7 µM) and the MIC (Micrococcus luteus) was 0.25 µg/mL (≈ 0.198 µM). For the same molecule, the MIC (Enterococcus faecium) was 2 µg/mL (≈ 1.59 µM), the MIC (Enterococcus faecalis) was 16 µg/mL (≈ 12.7 µM) and the MIC (Bacillus thuringiensis) was 4 µg/mL (≈ 3.17 µM). For the same molecule, the MIC (Candida albicans) was 8 µg/mL (≈ 6.34 µM).
For `CC(C)[C@H]1C(=O)O[C@H](C)[C@H](NC(=O)c2c3nc4c(C(=O)N[C@@H]5C(=O)N[C@H](C(C)C)C(=O)N6CCC[C@H]6C(=O)N(C)CC(=O)N(C)[C@@H](C(C)C)C(=O)O[C@@H]5C)ccc(Br)c4oc-3c(Br)c(=O)c2N)C(=O)N[C@H](C(C)C)C(=O)N2CCC[C@H]2C(=O)N(C)CC(=O)N1C`, the MIC (Staphylococcus aureus [1]) was 16 µg/mL (≈ 11.6 µM), the MIC (Staphylococcus aureus [2]) was 16 µg/mL (≈ 11.6 µM) and the MIC (Staphylococcus aureus [3]) was 8 µg/mL (≈ 5.78 µM). For the same molecule, the MIC (Staphylococcus aureus [4]) was 8 µg/mL (≈ 5.78 µM), the MIC (Staphylococcus aureus [5]) was 8 µg/mL (≈ 5.78 µM) and the MIC (Staphylococcus aureus [6]) was 8 µg/mL (≈ 5.78 µM). For the same molecule, the MIC (Staphylococcus aureus [7]) was 8 µg/mL (≈ 5.78 µM), the MIC (Staphylococcus aureus [8]) was 8 µg/mL (≈ 5.78 µM) and the MIC (Micrococcus luteus) was < 0.06 µg/mL. It also gave an MIC (Enterococcus faecium) of 0.13 µg/mL (≈ 0.0939 µM), an MIC (Enterococcus faecalis) of 16 µg/mL (≈ 11.6 µM) and an MIC (Bacillus thuringiensis) of 0.25 µg/mL (≈ 0.18 µM). It also gave an MIC (Candida albicans) of 16 µg/mL (≈ 11.6 µM), an IC50 (HepG2) of 2400 nM and an IC50 (HeLa) of 6200 nM. The IC50 (HL-60) was 40 nM, the IC50 (RKO) was 1500 nM and the IC50 (A549) was 1100 nM. It also gave an IC50 (MCF7) of 1500 nM, an IC50 (L02) of 17600 nM and an IC50 (BEAS-2B) of 2200 nM.
Molecule `CC1(C)S[C@@H]2[C@H](NC(=O)[C@H](N)c3ccccc3)C(=O)N2[C@H]1C(=O)O` [AMPICILLIN] has an MIC (Staphylococcus aureus [1]) of 64 µg/mL (≈ 183 µM), an MIC (Staphylococcus aureus [2]) of 8 µg/mL (≈ 22.9 µM) and an MIC (Staphylococcus aureus [3]) of 8 µg/mL (≈ 22.9 µM). For the same molecule, the MIC (Staphylococcus aureus [6]) was 2 µg/mL (≈ 5.72 µM), the MIC (Staphylococcus aureus [7]) was > 64 µg/mL and the MIC (Staphylococcus aureus [8]) was 1 µg/mL (≈ 2.86 µM). The MIC (Micrococcus luteus) was 0.13 µg/mL (≈ 0.372 µM), the MIC (Enterococcus faecium) was > 64 µg/mL and the MIC (Enterococcus faecalis) was 32 µg/mL (≈ 91.6 µM). For the same molecule, the MIC (Bacillus thuringiensis) was 2 µg/mL (≈ 5.72 µM) and the MIC (Candida albicans) was 0.13 µg/mL (≈ 0.372 µM).
Work on `CN[C@H](CC(C)C)C(=O)N[C@H]1C(=O)N[C@@H](CC(N)=O)C(=O)N[C@H]2C(=O)N[C@H]3C(=O)N[C@H](C(=O)N[C@H](C(=O)O)c4cc(O)cc(O)c4-c4cc3ccc4O)[C@H](O)c3ccc(c(Cl)c3)Oc3cc2cc(c3O[C@@H]2O[C@H](CO)[C@@H](O)[C@H](O)[C@H]2O[C@H]2C[C@](C)(N)[C@H](O)[C@H](C)O2)Oc2ccc(cc2Cl)[C@H]1O` [VANCOMYCIN] yielded an MIC (Staphylococcus aureus [1]) of 64 µg/mL (≈ 44.2 µM), an MIC (Staphylococcus aureus [7]) of 0.25 µg/mL (≈ 0.173 µM) and an MIC (Micrococcus luteus) of 0.25 µg/mL (≈ 0.173 µM). The MIC (Enterococcus faecium) was > 64 µg/mL, the MIC (Enterococcus faecalis) was 1 µg/mL (≈ 0.69 µM) and the MIC (Bacillus thuringiensis) was 4 µg/mL (≈ 2.76 µM). The MIC (Candida albicans) was 0.25 µg/mL (≈ 0.173 µM).

From ChEMBL document CHEMBL4828714, “Mutasynthesis of Antibacterial Halogenated Actinomycin Analogues” (J Nat Prod, 2021)
